Measurements taken from patent publication US20210207099A1, “METHODS AND COMPOSITIONS FOR GENERATING CELLS OF ENDODERMAL LINEAGE AND BETA CELLS AND USES THEREOF” (priority 2018, published 2021).

Tests used:
Assay type in all cases: cell-based, human
[1] = tested on: plated pancreatic progenitors; assay: Single-cell RNA sequencing of plated pancreatic progenitors treated throughout stage 4; details: 5 μM nocodazole throughout stage 4
Procedure: Cells generated with the suspension protocol were single-cell dispersed with TrypLE from clusters at the end of stage 3 and seeded onto collagen 1 coated 24-well plates at 0.625×10^6 cells/cm^2. Either 0.5 μM latrunculin A or 5 μM nocodazole were added throughout the entirety of stage 4. At the end of stage 4, cells were single-cell dispersed, suspended in DMEM, and submitted to the Washington University Genome Technology Access Center. Library preparation was done using the Chromium Single Cell 3′ Library and Gel Bead Kit v2 (10× Genomics, 120237). Briefly, single cells were isolated in emulsions using a microfluidic platform, and each single cell emulsion was barcoded with a unique set of oligonucleotides. The GemCode Platform was used to carry out reverse transcription within each single cell emulsion, which was amplified to construct a library. The libraries were sequenced with paired-end reads of 26×98 primerbp using the Illumina HiSeq2500.
Seurat v2.0 was used to perform single cell RNA analyses. Duplicate cells and cells with high mitochondrial gene expression were filtered out using FilterCells (>9000 total genes and >5% mitochondrial genes for Untreated Control, >6000 genes and >6% mitochondrial genes for latrunculin A, >12000 genes and >4% mitochondrial genes for nocodazole). Each data set was normalized using global-scaling normalization. FindVariableGenes identified and removed outlier genes using scaled z-score dispersion. The datasets were then combined and a canonical correlation analysis (CCA) was performed with RunMultiCCA. AlignSubspace was used to align the CCA subspaces and generated a new dimension reduction for integrated analysis. Unsupervised TSNE plots were generated using RunTSNE, and the resulting clusters were defined and labeled using FindMarkers. VInPlot (Violin plots) and FeaturePlot (tsne plots) were used to visualize differences in gene expressions across each cluster and conditions.

[2] = tested on: HUES8 cells, exocrine differentiation protocol; assay: Exocrine pancreas differentiation with cytoskeletal compounds; details: 1 μM for the entirety of stage 4
Procedure: (§1) For differentiation to other endodermal lineages, HUES8 stem cells were cultured and passaged normally. Differentiations were initiated 24 hours after seeding 24-well plates at 0.521×10^6 cells/cm^2. Protocols for exocrine pancreas, intestine, and liver were adapted, from literature. Either latrunculin A or nocodazole were added as indicated in each protocol. All three differentiation protocols used the same stage 1 to induce endoderm. Stage 1 (4 days): BE1 media+100 ng/mL Activin A+3 μM CHIR99021 for the first 24 hours, followed with 3 days of BE1 containing 100 ng/mL Activin A only.
Exocrine Pancreas: Stage 2 (2 days): BE2 media+50 ng/mL KGF. Stage 3 (2 days): BE3+50 ng/mL KGF, 200 nM LDN193189, 500 nM TPPB, 2 μM retinoic acid, and 0.25 μM SANT1. Stage 4 (4 days): BE3+50 ng/mL KGF, 200 nM LDN193189, 500 nM TPPB, 0.1 μM retinoic acid, and 0.25 μM SANT1. Either 1 μM latrunculin A was added for the first 24 hours of this stage, or 1 μM nocodazole was added for the entirety of stage 4. Stage 5 (6 days): S5 media+10 ng/mL bFGF. 10 mM nicotinamide (MilliporeSigma, 72340) was added for the last two days.

[3] = tested on: HUES8 cells, intestinal differentiation protocol; assay: Intestine differentiation with cytoskeletal compounds; details: 1 μM for the entirety of stage 2
Procedure: as §1
Intestine Differentiation: Stage 2 (4 days): BE2 media+3 μM CHIR99021+500 ng/mL FGF4 (R&D Systems, 235-F4). Either 1 μM latrunculin A was added for the first 24 hours of this stage, or 1 μM nocodazole was added for the entirety of stage 2. Stage 3 (7 days): BE3 media+500 ng/mL R-spondin1 (R&D Systems, 4645-RS)+100 ng/mL EGF (R&D Systems, 236-EG)+200 nM LDN193189.

[4] = tested on: HUES8 cells, hepatic differentiation protocol; assay: Liver differentiation with cytoskeletal compounds; details: 1 μM for the first 24 hours of stage 3
Procedure: as §1
Liver Differentiation: Stage 2 (2 days): BE2 media+50 ng/mL KGF. Stage 3 (4 days): BE3 media+10 ng/mL bFGF+30 ng/mL BMP4 (R&D Systems, 314-BP). For the first 24 hours only, 2 μM retinoic acid and either 1 μM latrunculin A or 1 μM nocodazole were added. Stage 4 (5 days): BE3 media+20 ng/mL OSM (R&D Systems, 295-OM)+20 ng/mL HGF (R&D Systems, 294-HG)+100 nM dexamethasone (MilliporeSigma, D4902).

[5] = tested on: TGFβ signaling (phosphorylated SMAD); assay: Western blot of SMAD 2/3 phosphorylation in Stage 6 cells; details: lesser extent than Alk5i
Procedure: Protein was extracted from cell clusters after washing with PBS by placing in western blot lysis buffer consisting 50 mM HEPES, 140 mM NaCl (MilliporeSigma; 7647-14-5), 1 mM EDTA (MilliporeSigma, 1233508), 1% Triton X-100, 0.1% Na-deoxycholate (MilliporeSigma: D6750), 0.1% SDS (ThermoScientific; 24730020), 1 mM Na3VO4 (MilliporeSigma; 450243), 10 mM NaF (MilliporeSigma; S7920), and 1% Protease Inhibitor Cocktail (MilliporeSigma; p8340), incubating on a shaker for 15 min at 4° C., and centrifuging at 10000 RCF for 10 min at 4° C. Protein amount was quantified with the Pierce BCA Protein Assay (Thermo Scientific; 23228). Protein (30 μg) was loaded onto a 4-20% gradient polyacrylamide gel (Invitrogen; SP04200BOX), resolved by electrophoresis, and transferred onto a 0.45 μm nitrocellulose membrane (BioRad; 1620115). The nitrocellulose membrane was blocked with Blotting Grade Blocker (BioRad; 170-6404) and incubated with rabbit-anti-phospho-SMAD⅔ 1:1000 (Cell Signaling Technologies; 8828) and rabbit-anti-Actin 1:1000 (Santa Cruz Biotechnology; SC1616) antibodies in blocker overnight at 4° C. Membrane was washed and stained with rabbit secondary antibody 1:2500 (Jackson Immuno Research Laboratories; 211-032-171) in blocker for 2 hr at 4° C. and developed using SuperSignal West Femto (Thermo Scientific; 34096). Images were taken on an Odyssey FC (Li-COR). After imaging, the nitrocellulose membrane was stripped using Restore Western Blot Stripping Buffer (Thermo Scientific; 21059), incubated with rabbit-anti-SMAD⅔ (Cell Signaling Technologies; 8685) antibody overnight at 4° C., washed and stained with rabbit secondary antibody 1:2500 in blocker for 2 hr 4° C., developed using SuperSignal West Femto, and imaged using the Odyssey FC.

TGFBR1 = assay: Lentiviral shRNA knockdown of TGFBR1 in Stage 6 cells; details: real-time PCR
Procedure: TBP was used as a normalization gene.
pLKO.1 TRC plasmids containing shRNA sequences contained the following sequences: shRNA GFP, […] (SEQ ID NO: 89); shRNA TGFBR1 #1, […] (SEQ ID NO: 90); shRNA TGFBR1 #2, […] (SEQ ID NO: 91). Lentivirus particles were generated and titered using pMD-Lgp/RRE and pCMV-G, and RSV-REV packaging plasmids to contain shRNA. Stage 6 Day 1 cells were single cell dispersed using TrypLE, and 3 million cells were seeded in 4 mL ESFM lentivirus particles at MOI 3-5 on the shaker. Transduced cells were washed with fresh ESFM 16 hr post transduction. RNA extraction and static GSIS was performed on stage 6 day 13.

Row | Compound | percentage of exocrine-like progenitors [1] [%] | endocrine induction [2] | trypsin gene expression (PRSS1, PRSS2) and immunostaining [2] | CDX2 gene expression and immunostaining [3] | hepatocyte gene expression [4] | immunostaining for albumin [4] | SMAD phosphorylation after shRNA transduction [5] | TGFBR1 transcript compared to control virus targeting GFP (TGFBR1)
1 | COC(=O)Nc1nc2ccc(C(=O)c3cccs3)cc2[nH]1 [nocodazole] | 67.0 | inhibited endocrine induction | greatly increased trypsin gene expression | greatly increased CDX2 gene expression and immunostaining | increased hepatocyte gene expression | more abundant with nocodazole treatment | – | –
2 | TGFBR1 #2: lentivirus carrying shRNA against TGFBR1, GCAGGATTCTTTAGGCTTTAT (SEQ ID NO: 91) | – | – | – | – | – | – | reduced SMAD phosphorylation | reducing TGFBR1 transcript
3 | TGFBR1 #1: lentivirus carrying shRNA against TGFBR1, GATCATGATTACTGTCGATAA (SEQ ID NO: 90) | – | – | – | – | – | – | reduced SMAD phosphorylation | reducing TGFBR1 transcript
